Experimental data: the NIST ThermoML archive (doi:10.1021/je700542v)
Where “and” joins values, the source holds several entries; their conditions need not be identical. Equal values may be shown once.

Conditions: Crystal

[Cu+2].[F-].[F-] [copper difluoride]
Conditions	vapor or sublimation pressure
881 K	2.188e-05 kPa
886 K	2.951e-05 kPa
895 K	4.365e-05 kPa
896 K	3.715e-05 kPa and 4.365e-05 kPa
897 K	4.365e-05 kPa
900 K	4.365e-05 kPa
901 K	5.129e-05 kPa
902 K	5.129e-05 kPa
903 K	5.888e-05 kPa
906 K	5.888e-05 kPa
908 K	5.888e-05 kPa
909 K	8.128e-05 kPa
911 K	6.607e-05 kPa
912 K	8.912e-05 kPa
913 K	7.413e-05 kPa
914 K	8.128e-05 kPa
915 K	8.912e-05 kPa and 7.413e-05 kPa
918 K	7.413e-05 kPa
919 K	0.0001023 kPa
921 K	0.0001175 kPa
922 K	0.0001023 kPa and 9.55e-05 kPa
924 K	0.0001175 kPa
925 K	0.0001096 kPa
928 K	0.0001175 kPa
929 K	0.0001318 kPa
930 K	0.0001318 kPa and 0.0001479 kPa and 0.0001622 kPa
931 K	0.0001096 kPa
932 K	0.0001622 kPa
934 K	0.0001479 kPa
939 K	0.0001905 kPa and 0.0001778 kPa
940 K	0.0001905 kPa and 0.0002188 kPa
941 K	0.0001778 kPa
942 K	0.0002042 kPa
943 K	0.0002042 kPa
944 K	0.0001905 kPa
948 K	0.0002512 kPa and 0.0002344 kPa
949 K	0.0002512 kPa
950 K	0.000309 kPa
952 K	0.0002818 kPa and 0.000263 kPa
953 K	0.0002818 kPa
955 K	0.000309 kPa
956 K	0.0002951 kPa and 0.0002818 kPa
959 K	0.0003715 kPa and 0.0003548 kPa
960 K	0.0003802 kPa
961 K	0.0004365 kPa
964 K	0.0004266 kPa
965 K	0.0003802 kPa and 0.0004074 kPa
969 K	0.0005012 kPa [middle of 4 runs]
970 K	0.0005888 kPa
973 K	0.0005495 kPa and 0.0005129 kPa
974 K	0.0005129 kPa
976 K	0.0006166 kPa
978 K	0.0006607 kPa
979 K	0.0006607 kPa and 0.0007413 kPa
982 K	0.0006607 kPa
983 K	0.0007413 kPa
984 K	0.0006761 kPa
986 K	0.0008128 kPa and 0.0008318 kPa
988 K	0.0008318 kPa
989 K	0.0007943 kPa
990 K	0.0008511 kPa
992 K	0.0009772 kPa
993 K	0.001023 kPa
996 K	0.001122 kPa and 0.001097 kPa
998 K	0.001122 kPa and 0.001023 kPa
999 K	0.001097 kPa
1002 K	0.001288 kPa
1003 K	0.00123 kPa
1005 K	0.001445 kPa and 0.001412 kPa
1006 K	0.001412 kPa
1007 K	0.001349 kPa
1008 K	0.001445 kPa
1011 K	0.001698 kPa
1013 K	0.00182 kPa
1014 K	0.001862 kPa
1015 K	0.001906 kPa and 0.001778 kPa
1016 K	0.001738 kPa
1020 K	0.002188 kPa and 0.001995 kPa
1023 K	0.002455 kPa
1024 K	0.002455 kPa
1025 K	0.00257 kPa and 0.002455 kPa and 0.002239 kPa
1030 K	0.00263 kPa
1032 K	0.00309 kPa
1033 K	0.003162 kPa
1051 K	0.005129 kPa

[Ag+].[F-] [silver fluoride]
Conditions	vapor or sublimation pressure
880 K	5.754e-05 kPa
891 K	5.248e-05 kPa
894 K	7.763e-05 kPa
897 K	7.763e-05 kPa
904 K	8.318e-05 kPa
910 K	0.0001549 kPa and 9.772e-05 kPa and 0.0001047 kPa
912 K	0.0001047 kPa
913 K	0.0001349 kPa
914 K	0.0001549 kPa
917 K	0.0001549 kPa
920 K	0.0002291 kPa and 0.0001549 kPa and 0.000166 kPa
921 K	0.0001738 kPa
925 K	0.000166 kPa
928 K	0.0002344 kPa
929 K	0.000195 kPa and 0.0002089 kPa
931 K	0.0001738 kPa and 0.0002512 kPa
933 K	0.0002089 kPa
936 K	0.0002692 kPa
938 K	0.0002692 kPa
939 K	0.0003715 kPa
941 K	0.0002399 kPa
942 K	0.0002692 kPa
947 K	0.0004074 kPa
948 K	0.000309 kPa and 0.0004266 kPa
949 K	0.0005248 kPa and 0.0003467 kPa and 0.0003715 kPa
955 K	0.0003715 kPa
956 K	0.0004266 kPa
958 K	0.0005012 kPa and 0.0004677 kPa
965 K	0.000537 kPa and 0.0005012 kPa
966 K	0.0006918 kPa
967 K	0.0006761 kPa
968 K	0.0008913 kPa
974 K	0.0006456 kPa
975 K	0.0006761 kPa
977 K	0.0007244 kPa and 0.0007763 kPa
978 K	0.0008511 kPa
979 K	0.0008913 kPa
984 K	0.001047 kPa
985 K	0.000871 kPa and 0.000912 kPa and 0.0009772 kPa
986 K	0.001445 kPa
987 K	0.0008913 kPa
990 K	0.001175 kPa
994 K	0.001097 kPa and 0.001175 kPa
995 K	0.001698 kPa
996 K	0.001349 kPa and 0.001071 kPa
1000 K	0.001479 kPa and 0.001585 kPa
1004 K	0.001445 kPa
1005 K	0.00123 kPa
1008 K	0.002239 kPa
1010 K	0.001862 kPa
1012 K	0.00166 kPa and 0.001778 kPa
1013 K	0.001995 kPa and 0.001412 kPa
1014 K	0.001738 kPa
1017 K	0.00263 kPa
1019 K	0.002399 kPa
1022 K	0.002089 kPa and 0.002239 kPa
1025 K	0.002344 kPa
1026 K	0.001995 kPa
1031 K	0.002455 kPa and 0.00263 kPa
1034 K	0.00257 kPa
1036 K	0.003311 kPa
1037 K	0.003548 kPa
1040 K	0.00309 kPa and 0.003311 kPa
1049 K	0.003715 kPa and 0.003981 kPa
1057 K	0.004467 kPa and 0.004786 kPa
